Experimental data published in patent US6900343B1, “Method for the purification of metallocenes” (Basell Polyolefine GmbH, priority 1998, dated 2005).

Columns and labels:
[1] = Solubility comparison in toluene at room temperature
[2] = Propylene polymerization with supported metallocene/MAO/SiO2 catalyst; details: supported on SiO2 with MAO (Al/Zr=215); liquid propylene, 60° C., 1 hour
Experimental: 35.1 mg (0.047 mmol) of (1) were stirred in 2.1 ml of 30% strength MAO solution in toluene (Al/Zr=215) for 60 minutes at room temperature. 2 g of SiO2 (Grace XPO2107, pretreated at 140° C., 10 mbar, 10 hours) were subsequently added and the mixture was stirred for another 10 minutes. The solvent was removed in an oil pump vacuum.
A dry 2 l reactor was flushed firstly with nitrogen and subsequently with propylene and charged with 1.5 l of liquid propylene. 2 ml of TEA (20% strength in Varsol) were added thereto and the mixture was stirred for 15 minutes. The catalyst system prepared above (0.886 g) was subsequently resuspended in 20 ml of heptane and then injected into the reactor and rinsed in with 15 ml of heptane. The reaction mixture was heated to the polymerization temperature of 60° C. and polymerization was carried out for 1 hour. The polymerization was stopped by venting the remaining propylene. The polymer was dried in a vacuum drying oven. This gave 470 g of polypropylene powder. […] The catalyst activity was 0.53 kg of PP/g of catalyst x h.
27.1 mg (0.047 mmol) of dimethylsilanediylbis(2-methyl-4,5-benzoindenyl)zirconium dichloride were stirred in 2.1 ml of 30% strength MAO solution in toluene (Al/Zr=215) for 60 minutes at room temperature. […]

Row | Compound | solubility [1] | catalyst activity [2]
1 | CCC(C)(C)c1ccc([O][Zr]2([Cl])[C]3(C(C)=Cc4c3ccc3ccccc43)[Si](C)(C)[C]23C(C)=Cc2c3ccc3ccccc23)c(C(C)(C)CC)c1 (stereo not shown) [Compound 6, Dimethylsilanediylbis(2-methyl-4,5-benzoindenyl)-zirconium Monochloride mono(2,4-di-tert-pentylphenoxide)] | about 17.7 mmol/l | 
2 | Cc1cc2ccccc2[c-]1[Si](C)(C)[c-]1c(C)cc2ccccc21.[Cl-].[Cl-].[Zr+4] (stereo not shown) [dimethylsilanediylbis(2-methylindenyl)zirconium dichloride, reference compound] | about 2.1 mmol/l | 
3 | Dimethylsilanediyl-bis(2-methylindenyl)zirconium Monochloride mono(2,4-di-tert-butylphenoxide) [Compound 2] | > 15 mM | 
4 | CC1=Cc2c(ccc3ccccc23)[C]12[Si](C)(C)[C]1(C(C)=Cc3c1ccc1ccccc31)[Zr]2([Cl])[Cl] (stereo not shown) [dimethylsilanediylbis(2-methyl-4,5-benzoindenyl)zirconium dichloride, reference compound] | about 0.36 mmol/l | 0.46 kg of PP/g of catalyst x h
5 | CC1=Cc2c(ccc3ccccc23)[C]12[Si](C)(C)[C]1(C(C)=Cc3c1ccc1ccccc31)[Zr]2([Cl])[O]c1ccc(C(C)(C)C)cc1C(C)(C)C (stereo not shown) [Compound 1, Dimethylsilanediylbis(2-methyl-4,5-benzoindenyl)zirconium Monochloride mono(2,4-di-tert-butylphenoxide)] | > 13 mM | 0.53 kg of PP/g of catalyst x h
